Where “and” joins values, the source holds several entries; their conditions need not be identical. Equal entries are not always repeated.
Assay: mn = molality of the nth substance listed, in mol/kg
Settings: 101 kPa, Liquid; for mass density: Vibrating tube method; for viscosity: Capillary tube (Ostwald / Ubbelohde) method; for speed of sound: Sing-around technique in a fixed-path interferometer

O=C([O-])CC(O)(CC(=O)[O-])C(=O)[O-].[K+].[K+].[K+] [potassium citrate] + O
Settings	mass density, 303.15 K [kg/m3]	mass density, 308.15 K [kg/m3]	mass density, 313.15 K [kg/m3]	speed of sound, 308.15 K [m/s]	speed of sound, 313.15 K	viscosity, 308.15 K [mPa·s]	viscosity, 313.15 K [mPa·s]
m1 = 0.0472	–	1003.5	1001.66	1529	1538.1 m/s	0.739	0.665
m1 = 0.0566	–	1005.36	1003.51	1530.8	1539.8 m/s	0.741	0.668
m1 = 0.066	1008.87	1007.2	1005.35	1532.5	1541.4 m/s	0.744	0.672
m1 = 0.0754	1010.72	1009.04	1007.18	1534.2	1543 m/s	0.749	0.675
m1 = 0.0849	1012.58	1010.89	1009.03	1535.9	1544.7 m/s	0.754	0.68
m1 = 0.0943	1014.42	1012.72	1010.86	1537.6	1546.4 m/s	0.76	0.684
m1 = 0.2984	1052.39	1050.43	1048.42	1572.8	1580.5 m/s	0.861	0.783
m1 = 0.3971	1069.63	1067.62	1065.62	1589	1596.5 m/s	0.916	0.832
m1 = 0.4955	1086.25	1084.2	1082.12	1605.1	1612 m/s	0.975	0.887
m1 = 0.5936	1102.31	1100.17	1098.03	1620.8	1627.4 m/s	1.036	0.94
m1 = 0.7877	1132.65	1130.41	1128.2	1651.3	1657.5 m/s	1.168	1.063
m1 = 0.9823	1161.02	1158.81	1156.41	1681	1686.1 m/s	1.316	1.196
m1 = 1.175	1187.66	1185.33	1182.97	1704	1709.4 m/s and 1714 m/s	1.486	1.351
m1 = 1.366	1212.46	1210.05	1207.69	1731.7	1736.3 m/s and 1740.3 m/s	1.671	1.516
m1 = 1.555	1235.64	1233.31	1230.6	1757.9	1762.1 m/s and 1765.2 m/s	1.875	1.697
m1 = 1.837	1267.94	1265.24	1262.83	1794.7	1797.6 m/s and 1800.3 m/s	2.231	2.013

— the NIST ThermoML archive (doi:10.1016/j.jct.2010.11.003)
